Measured values: US20150025236A1, “PROCESS FOR THE PREPARATION OF STABLE CRYSTALLINE FORM-I OF LINEZOLID, SUBSTANTIALLY FREE OF RESIDUAL SOLVENT” (Jubilant Life Sciences Limited, priority 2012, published 2015)

Assay: Stability study: determination of linezolid Form-II content in linezolid Form-I (polymorph status by XRD)

Polymorphic stability (formation of polymorphic impurity Form-II) (containing residual solvent(s), though complying with the regulatory norms): undergoes transformation into Form II
Time stable during stability study (different conditions of relative humidity (RH) and temperature (Table-1)): up to 12 months
SMILES: CC(=O)NC[C@H]1CN(c2ccc(N3CCOCC3)c(F)c2)C(=O)O1 [Linezolid Form-I, (S)—N-[[3-(3-fluoro-4-morpholinylphenyl)-2-oxo-5-oxazolidinyl]methyl]acetamide]
Polymorphic stability (formation of polymorphic impurity Form-II) (substantially free of solvent(s)): does not generate polymorphic impurity, Form-II
